Measured values: patent publication US11389465B2, “Phosphorylated hexaacyl disaccharides (PHADs) for treating or preventing infections” (VANDERBILT UNIVERSITY, priority 2017, dated 2022)

Experiments:
[1] = tested on: Pseudomonas aeruginosa; assay: Duration of MPLA activity, intraperitoneal P. aeruginosa challenge (FIG. 4); format: in vivo, mice
Description: FIG. 4. Duration of MPLA activity. Mice were treated with MPLA (20 μg IP) for 2 consecutive days and challenged with P. aeruginosa at the designated times after the last MPLA treatment. *<0.05 compared to vehicle control.
It is important to know how long the effect of PHADs lasts to guide dosing frequency. Studies were performed with MPLA that show a duration of action of up to 10 days. Mice were treated with MPLA on 2 consecutive days (20 μg, IP) followed by intraperitoneal challenge with Pseudomonas aeruginosa (1×10^8) at 1, 7, 10 or 15 days after the last MPLA treatment (FIG. 4).

[2] = in vivo; cited from earlier work
[3] = Physiological response of non-burned sheep to MPLA infusion (FIG. 6); format: in vivo; settings: 1 hour monitoring
Description: FIG. 6. Effects of MPLA infusion at the indicated doses over 10 minutes. Endpoints were recorded over a 1 hour period beginning at the end of the MPLA infusion.
In further studies, the response of sheep to MPLA infusion was assessed (FIG. 6). Instrumented sheep received infusions of MPLA at doses of 5, 10 or 30 ug/kg in 10 ml of endotoxin-free lactated Ringer's solution over 10 minutes. Physiological parameters were monitored for 1 hour after MPLA infusion. […] These observations indicate that sheep have sensitivity to MPLA that is very similar to humans.

[4] = tested on: P. aeruginosa; assay: Pseudomonas pneumonia in burned sheep treated with MPLA (FIG. 14); format: in vivo
Description: FIG. 14. MPLA treatment improves oxygenation and pulmonary mechanics and attenuates lactate production in sheep with Pseudomonas pneumonia. Studies were undertaken to assess oxygenation, pulmonary mechanics and hemodynamics in burned sheep treated with vehicle or MPLA prior to intrapulmonary challenge with P. aeruginosa. Sheep received a 20% total body surface area thermal burn followed 24 hours later by MPLA infusion. Intrapulmonary P. aeruginosa infection was induced at 24 hours after MPLA infusion. […] Hemodynamics and pulmonary function were measured for 24 hours after Pseudomonas infection.

[5] = Physiological response of burned sheep to MPLA infusion (FIG. 7); format: in vivo
Description: FIG. 7. MPLA infusion causes transient physiologic changes in burned sheep. Sheep received 20% total body surface area burn followed 24 hours later by vehicle or MPLA ([…]) infusion. Core body temperature, hemodynamics and pulmonary mechanics were measured for 2 hours after initiation of MPLA or vehicle infusions. […] A transient increase in heart rate (HR) and decrease in mean arterial blood pressure (MAP) were also observed in MPLA-treated sheep.
Sheep were instrumented and received a 20% cutaneous burn. At 24 hours after the burn procedure, MPLA (5 ug/kg) was infused in 10 ml of endotoxin-free lactated Ringer's solution over 10 minutes. The sheep developed a transient 1° C. increase in core temperature at 1 hour after the start of infusion (FIG. 7).

[6] = tested on: Staphylococcus aureus; assay: Systemic S. aureus infection after MPLA or PHADs (FIG. 8); format: in vivo, mice; settings: 20 μg/mouse on day 0 and day 1; S. aureus 1×10^8 intravenously on day 2
Description: FIG. 8. PHADs induce bacterial clearance and promote survival post systemic S. aureus infection. […] (B) In one set of experiments, mice were euthanized at 72 hours post-infection and lung, spleen, and kidney tissues were harvested to measure bacterial burden. (C) In a separate set of experiments, mice underwent the same treatment with MPLA or PHADs, followed by infection with S. aureus. However, this group is monitored for 14 days to assess for survival. *p<0.05 compared to vehicle. N=13-16/group in the 3 day clearance experiments, performed in quadruplicate, and n=9-10/group, performed in triplicate.
In addition, mice were analyzed for survival after intravenous Staphylococcus aureus infection with treatment of MPLA or PHADs. At Day 0, mice were treated with vehicle, MPLA or PHADs (20 μg/mouse). At Day 1, mice were treated with vehicle, MPLA or PHADs (20 μg/mouse). At Day 2, mice were infected with Staphylococcus aureus (1×10^8 intravenously) and followed for survival.

[7] = tested on: S. aureus; assay: Systemic (intravenous) S. aureus infection in MPLA-primed mice (FIG. 2); format: in vivo; settings: MPLA 20 μg
Description: FIG. 2. MPLA induces resistance to S. aureus and C. albicans infection. A) WT BALB/c mice were injected with intravenous MPLA (20 μg/mouse) or vehicle one and two days prior to intravenous inoculation with intravenous 10^8 cfu S. aureus or 10^8 cfu C. albicans. B) Kaplan Meier survival curve of vehicle- and MPLA-primed mice. (n=12 mice/group) after S. aureus inoculation. C) Core (rectal) body temperature assessed daily after S. aureus inoculation. D) S. aureus cfu per gram of tissue recoverable from whole spleen, lung, and kidney in vehicle and MPLA-primed mice at 3 days after S. aureus inoculation. E) Concentration of serum IL-6 2 hours after S. aureus inoculation or vehicle. F) Concentration of serum BUN 3 days after S. aureus inoculation or vehicle. G) Kaplan Meier survival curve of vehicle- and MPLA-primed mice. (n=12 mice/group) after intravenous 10^8 cfu C. albicans inoculation. H) Core (rectal) body temperature after C. albicans inoculation. Data shown as mean+/−SEM. For Kaplan-Meier plots *, p<0.05 via log-rank Mantel-Cox test. Otherwise, *, p<0.05 as determined by ANOVA with Tukey's post-hoc multiple comparison test.
MPLA is also effective in improving survival in models of systemic S. aureus and C. albicans infection. Mice treated with MPLA (20 μg) after a 20% cutaneous burn received intravenous challenge with S. aureus or C. albicans (1×10^8 CFU) on day 5 post-burn (FIG. 2).

[8] = tested on: P. aeruginosa; settings: 20 μg IP on 2 consecutive days, compared to vehicle
[9] = MPLA 5 ug/kg, 24 hours after 20% burn
[10] = MPLA 2.5 micrograms/kg (FIG. 7 legend)

Monophosphoryl Lipid A [MPLA]
duration of action ([1]; MPLA 20 μg IP on 2 consecutive days): up to 10 days | bacterial burden ([1]; challenge at 1, 7 and 10 days after last MPLA treatment, compared to vehicle): significantly lower bacterial burden | attenuation of hypothermia ([1]; challenge up to 15 days after last MPLA treatment): persisted until day 15 | dose relative to LPS that can be administered to humans before adverse side effects occur [2]: 1000-10,000 times | temperature, heart rate or mean pulmonary artery pressure ([3]; MPLA 5 ug/kg infused over 10 minutes): did not change | temperature, heart rate and mean pulmonary artery pressure ([3]; MPLA 10 or 30 ug/kg infused over 10 minutes): all parameters were increased | oxygenation (PaO2/FiO2 ratio, oxygenation index, shunt fraction) ([4]; 24 hours after Pseudomonas infection, compared to controls): significantly better | survival ([4]; 72 hour study period): All sheep survived | PaCO2 ([4]; MPLA vs vehicle): not significantly different between groups | decrease in plasma protein caused by pulmonary infection ([4]; MPLA vs vehicle, difference not significant): trended towards attenuation | plasma lactate concentration ([4]; compared to controls): significantly lower | cardiac index, mean arterial pressure, central venous pressure, stroke volume, systemic vascular resistance, peak and pause airway pressures and PaO2/FiO2 ratio [5, 9]: not significantly changed | heart rate and pulmonary artery pressure [5, 9]: not significantly altered | increase in core temperature ([5]; MPLA 5 ug/kg, 24 hours after 20% burn, transient, at 1 hour after start of infusion): 1 °C | cardiac index (CI), central venous pressure (CVP) and systemic vascular resistance (SVRI) [5, 10]: minimally impacted | mean arterial blood pressure (MAP) [5, 10]: significantly decreased at 45 and 60 minutes | time of peak core body temperature after initiation of infusion [5, 10]: 75 min | core body temperature ([5]; MPLA 2.5 micrograms/kg (FIG. 7 legend), from 45 minutes, still elevated at 2 hours): increased core body temperature | heart rate (HR) ([5]; MPLA 2.5 micrograms/kg (FIG. 7 legend), returned to baseline at 90 minutes): significantly increased at 30-75 minutes | safe dose ([5]; burned sheep, infusion over 10 minutes): 5 µg/kg | survival [6]: improved survival | infection-induced hypothermia ([7]; FIG. 2 C-F, H): attenuated infection-induced hypothermia | kidney injury ([7]; FIG. 2 C-F, H): less kidney injury | plasma cytokine concentrations ([7]; FIG. 2 C-F, H): lower plasma cytokine concentrations | survival ([7]; intravenous S. aureus 1×10^8 CFU): 90% | bacterial burden (peritoneal cavity) ([8]; 6 hours after challenge): decreased bacterial burden | neutrophil and monocyte recruitment to the site of infection ([8]; 6 hours after challenge): markedly enhanced | infection-induced hypothermia [8]: attenuated infection-induced hypothermia
